Results reported in US5597899A, “Tumor necrosis factor muteins” (Hoffmann-La Roche Inc., priority 1993, dated 1997).

Key:
human TNFR-p75 = assay: Solid phase radioligand competition binding assay, E. coli lysates, TNFR-p75; conditions: 10-fold serial dilutions 10^-2 to 10^-7, < = inhibition but below 50% at 1:100, << = no measurable inhibition at 1:100
Description: (§1) 10 ml suspensions of E. coli cells transformed and induced as described in Examples I and II were centrifuged at 4'000 rpm for 10 min and resuspended in 0.9 ml of lysis buffer (10 mM Tris-HCl pH 8.0, 5 mM EDTA, 2 mM PMSF, 10 mM benzamidine, 200 units/ml aprotinine and 0.1 mg/ml lysozyme). After 20 min incubation at room temperature 50 μl of 1M MgCl2, 20 μl of 5 mg/ml DNaseI, 50 μl of 5M NaCl and 50 μl of 10% NP-40 were added and the mixture was further incubated at room temperature for 15 min. 0.5 ml of the lysate clarified by centrifugation at 13'000 rpm for 5 min was subjected to ammonium sulfate precipitation (25%-70% cut). The 70% ammonium sulfat pellet was dissolved in 0.2 ml PBS and analyzed by sodium dodecyl sulfate polyacrylamide gel electrophoresis (SDS-PAGE) to confirm presence and approximate amount of the recombinant proteins.
96 well microtiter plates were coated with recombinant human […] TNFR-p75-hγ3 and TNFR-p55-hγ3 fusion proteins (extracellular portion of the receptor fused to the Fc part of human IgG3) at a concentration of 0.3 μg/ml and 0.1 μg/ml, respectively, in phosphate buffered saline (PBS, 100 μl/well, overnight at 4° C.) [Loetscher, H. et al. J. Biol. Chem. 266, 18324-18329 (1991); Lesslauer, W. et al. Eur. J. Immunol. 21, 2883-2886 (1991)]. After blocking with blocking buffer (50 mM Tris pH 7.4, 140 mM NaCl, 5 mM EDTA, 0.02% NAN3, 1% defatted milk powder) the microtiter plate was washed with PBS and incubated in blocking buffer containing 0.1% defatted milk powder with 10 ng/ml human wild-type ^125 I-TNFα and various dilutions of E. coli lysates ranging from 10^-2 to 10^-7 (10-fold serial dilutions). TNFα was labelled by the Iodogen method (Pierce Chemical Company) to a specific activity of about 10-30 μCi/μg. The volume was 100 μl/well and each lysate dilution was assayed in duplicate or triplicate. After three hours at room temperature the wells were thoroughly washed with PBS and counted in a γ-counter. The results are given in Table 2 for lysates comprising the muteins indicated therein.

human TNFR-p55 = assay: Solid phase radioligand competition binding assay, E. coli lysates, TNFR-p55; conditions: for Dilution of E. coli Lysate for 50% Inhibition of 125I-TNFα Binding (ID50) TNFR-p55: 10-fold serial dilutions 10^-2 to 10^-7, < = inhibition but below 50% at 1:100, << = no measurable inhibition at 1:100; for ID50 TNFR-p55 / ID50 TNFR-p75: ratio = 1 no receptor selectivity, > 1 TNFR-p55 selectivity, < 1 TNFR-p75 selectivity
Description: as §1, with “After” for “10 ml suspensions of E. coli cells transformed and induced as described in Examples I and II were centrifuged at 4'000 rpm for 10 min and resuspended in 0.9 ml of lysis buffer (10 mM Tris-HCl pH 8.0, 5 mM EDTA, 2 mM PMSF, 10 mM benzamidine, 200 units/ml aprotinine and 0.1 mg/ml lysozyme). After”
TNFα was labelled by the Iodogen method (Pierce Chemical Company) to a specific activity of about 10-30 μCi/μg. The volume was 100 μl/well and each lysate dilution was assayed in duplicate or triplicate. After three hours at room temperature the wells were thoroughly washed with PBS and counted in a γ-counter. The results are given in Table 2 for lysates comprising the muteins indicated therein.

Substance	Dilution of E. coli Lysate for 50% Inhibition of 125I-TNFα Binding (ID50) TNFR-p75 (human TNFR-p75)	Dilution of E. coli Lysate for 50% Inhibition of 125I-TNFα Binding (ID50) TNFR-p55 (human TNFR-p55)	ID50 TNFR-p55 / ID50 TNFR-p75 (human TNFR-p55)
N34D: human TNFα mutein N34D	< 100 fold	250 fold	> 2.5
N34E: human TNFα mutein N34E	< 100 fold	330 fold	> 3.3
N34F: human TNFα mutein N34F	< 100 fold	100 fold	> 1
N34G: human TNFα mutein N34G	< 100 fold	330 fold	> 3.3
N34H: human TNFα mutein N34H	< 100 fold	670 fold	> 6.7
N34I: human TNFα mutein N34I	< 100 fold	200 fold	> 2
N34M: human TNFα mutein N34M	< 100 fold	< 100 fold	> 1
N34P: human TNFα mutein N34P	< 100 fold	< 100 fold	> 1
N34Q: human TNFα mutein N34Q	< 100 fold	< 100 fold	> 1
N34R: human TNFα mutein N34R	< 100 fold	< 100 fold	> 1
N34T: human TNFα mutein N34T	< 100 fold	1,000 fold	> 10
N34V: human TNFα mutein N34V	< 100 fold	< 100 fold	> 1
N34Y: human TNFα mutein N34Y, listed twice (codons TAT and TAC)	< 100 fold	< 100 fold	> 1
N92R: human TNFα mutein N92R	1,250 fold	5,000 fold	4
Q21S: human TNFα mutein Q21S	2,500 fold	2,500 fold	1
Q67K: human TNFα mutein Q67K	50,000 fold	25,000 fold	0.5
Q67T: human TNFα mutein Q67T	33,330 fold	25,000 fold	0.75
Q67Y: human TNFα mutein Q67Y	33,330 fold	20,000 fold	0.6
